Results published in patent US20230172915A1, “DHODH INHIBITOR FOR THE TREATMENT OF COVID-19” (priority 2020, published 2023).
Read-outs that look alike come from different tables or passages of the source.

Key:
[1] = Phase 1 multiple dose study PTC299-ONC-002-HV in healthy volunteers (PK, safety); assay type: in vivo, human; details: for AUC: read-out: AUCO-4
Method: The PK of the 200 mg BID dosed for 7 days and 50 mg for 7 days was evaluated in a phase 1, escalating, multiple dose, safety, tolerability, and PK study, PTC299-ONC-002-HV (N=32; n=24 received PTC299 and 8 received placebo).
Study PTC299-ONC-002-HV had 2 stages; in Stage 1, doses ranged from 0.3 to 1.2 mg/kg BID, and in Stage 2, a 1.6 mg/kg TID dose was administered. Patients received the capsule formulation of PTC299 for 7 days in both stages. Dose of 200 mg tablet is approximately 1.2 mg/kg capsule whereas 50 mg tablet is approximately 0.3 mg/kg of capsule formulation.

[2] = tested on: PBMCs plus fibroblasts (HDFSAg); experiment: BioMAP profiling, HDFSAg system; assay type: cell-based; details: Homo sapiens
Method: The effect of PTC299 on cytokine production was assessed using BioMAP profiling (BioSeek, now part of Eurofins). The BioMAP system is comprised of complex co-cultures of primary peripheral blood mononuclear cells (PBMCs) with other cell types including B cells, fibroblasts, and endothelial cells allowing for the measurement of physiologically relevant biomarker readouts of the activity of a compound. Using this system, cytokine production was evaluated in the following models of primary cell disease models: • Peripheral blood mononuclear cells (PBMCs) plus venular endothelial cells (sAg) • PBMCs plus B cells (BT) • PBMCs plus fibroblasts (HDFSAg) • TH2 cells plus venular endothelial cells (/TH2).
Abbreviations in Table 4: BCR, B-cell receptor; BT System, co-culture of CD19+ B cells and PBMC that utilizes BCR stimulation and sub-mitogenic TCR stimulation; HDFSAg system, co-culture of human primary dermal fibroblasts and PBMC that is stimulated with sub-mitogenic TCR levels; IL, interleukin; PBMC, Peripheral Blood Mononuclear Cell; SAg system, co-culture of endothelial cells and PBMC stimulated with mitogenic levels of TCR ligands; TCR, T-cell receptor; /TH2 system, co-culture of endothelial cells and Th2 blasts stimulated with TCR ligands and cytokines; Th2, T helper type 2; VEGF, vascular endothelial growth factor.

[3] = Relative bioavailability tablet versus capsule; details: in vivo, oral; administered with food; read-out: relative bioavailability of tablet formulation compared with the capsule
Method: The rationale for this dosing is based on the following: • The dosing regimen utilizes results from PTC’s extensive clinical, safety, and clinical pharmacology experience with the capsule formulation of PTC299 that was used in prior solid tumor clinical studies. • The tablet formulation has approximately 40% relative bioavailability compared with the capsule when administered with food. • The 200 mg BID dosing for 7 days have been tested previously in healthy volunteers in study PTC299-ONC-002-HV with no serious adverse events. […] The dosing of 200 mg BID for the first 7 days will raise the exposure of the drug quickly to accommodate the need for rapid onset of PTC299 activity..

[4] = Bacterial mutagenicity (Ames) test
SARS-CoV-2 = SARS-CoV-2 titer in Vero cells, TCID50 assay; assay type: cell-based
SARS-CoV-2 USA-WA1/2020 = experiment: PTC299 and remdesivir alone or combined, SARS-CoV-2 titer in Vero cells (TCID50); assay type: cell-based; details: 24 hours post infection
[5] = In vivo rat micronucleus assay
[6] = Study PTC299-ONC-007-NF2: PTC299 plasma level; details: human, oral, 100 mg BID
[7] = tested on: Respiratory syncytial virus; experiment: Antiviral activity, Respiratory syncytial virus (Hep2 cells); assay type: cell-based; details: human respiratory syncytial virus, HEp-2
Poliovirus = experiment: microbe, parasite or virus in culture; assay type: cell-based; details: Enterovirus C, HeLa, read-out: EC50 Poliovirus
[8] = tested on: Hepatitis C virus (replicon); experiment: Antiviral activity, Hepatitis C virus replicon (Huh7 cells); assay type: cell-based; details: Huh-7
[9] = human, plasma, oral, 0.3 mg/kg, 0.3 mg/kg BID, Day 1, capsule
[10] = human, plasma, oral, 0.3 mg/kg, 0.3 mg/kg BID, Day 7, capsule
[11] = human, plasma, oral, 0.6 mg/kg, 0.6 mg/kg BID, Day 1, capsule
[12] = human, plasma, oral, 0.6 mg/kg, 0.6 mg/kg BID, Day 7, capsule
[13] = human, plasma, oral, 1.2 mg/kg, 1.2 mg/kg BID, Day 1, capsule
[14] = human, plasma, oral, 1.2 mg/kg, 1.2 mg/kg BID, Day 7, capsule
[15] = human, plasma, oral, 1.6 mg/kg, 1.6 mg/kg TID, Day 1, capsule
[16] = human, plasma, oral, 1.6 mg/kg, 1.6 mg/kg TID, Day 7, capsule
[17] = Severe acute respiratory syndrome coronavirus 2, Vero cells, extended dose response 0.003-1000 nM

COc1ccc([C@H]2c3[nH]c4ccc(Cl)cc4c3CCN2C(=O)Oc2ccc(Cl)cc2)cc1 [PTC299, 4-chlorophenyl (S)-6-chloro-1-(4-methoxyphenyl)-1,3,4,9-tetrahydro-2H-pyrido[3,4-b]indole-2-carboxylate]
Tl/2 ([1]; 0.3 mg/kg BID, Day 7, capsule): 164 h
Tmax ([1]; 0.6 mg/kg BID, Day 1, capsule): 3.0 h
Tl/2 ([1]; 0.6 mg/kg BID, Day 7, capsule): 210 h
Tl/2 ([1]; 1.2 mg/kg BID, Day 7, capsule): 228 h
Tl/2 ([1]; 1.6 mg/kg TID, Day 7, capsule): 225 h
SAEs during study PTC299-ONC-002-HV ([1]; healthy volunteers, 7 days, 0.3 to 1.2 mg/kg BID and 1.6 mg/kg TID): no SAEs occurred
Cmax [1, 9]: 280 ng/mL
AUC [1, 9]: 4310 ng·h/mL
Tmax ([1]; human, plasma, oral, 0.3 mg/kg, 0.3 mg/kg BID, Day 1, capsule, read-out: Tmax): 4 h
Cmax [1, 10]: 510 ng/mL
AUC [1, 10]: 8440 ng·h/mL
Tmax ([1]; human, plasma, oral, 0.3 mg/kg, 0.3 mg/kg BID, Day 7, capsule, read-out: Tmax): 3.5 h
Cmax [1, 11]: 710 ng/mL
AUC [1, 11]: 10100 ng·h/mL
Cmax [1, 12]: 1110 ng/mL
AUC [1, 12]: 18600 ng·h/mL
Tmax ([1]; human, plasma, oral, 0.6 mg/kg, 0.6 mg/kg BID, Day 7, capsule, read-out: Tmax): 4 h
Cmax [1, 13]: 1140 ng/mL
AUC [1, 13]: 18000 ng·h/mL
Tmax ([1]; human, plasma, oral, 1.2 mg/kg, 1.2 mg/kg BID, Day 1, capsule, read-out: Tmax): 3.5 h
Cmax [1, 14]: 2110 ng/mL
AUC [1, 14]: ~32900 ng·h/mL
Tmax ([1]; human, plasma, oral, 1.2 mg/kg, 1.2 mg/kg BID, Day 7, capsule, read-out: Tmax): 4 h
Cmax [1, 15]: 1670 ng/mL
AUC [1, 15]: 37100 ng·h/mL
Cmax [1, 16]: 3530 ng/mL
AUC [1, 16]: 78600 ng·h/mL
inhibition at 0.001 µM ([2]; read-out: % Inhibition sVEGF): 90%
inhibition at 0.01 µM ([2]; read-out: % Inhibition sVEGF): 84%
inhibition at 0.1 µM ([2]; read-out: % Inhibition sVEGF): 60%
inhibition at 0.001 µM ([2]; HDFSAg, 1 nM, read-out: % Inhibition sIL-6): 33%
inhibition at 0.001 µM ([2]; HDFSAg, 1 nM, read-out: % Inhibition sIL-17F): 46%
inhibition at 0.01 µM ([2]; HDFSAg, 10 nM, read-out: % Inhibition IL-8): 25%
inhibition at 0.01 µM ([2]; HDFSAg, 10 nM, read-out: % Inhibition sIL-2): 47%
inhibition at 0.01 µM ([2]; HDFSAg, 10 nM, read-out: % Inhibition sIL-6): 91%
inhibition at 0.01 µM ([2]; HDFSAg, 10 nM, read-out: % Inhibition sIL-10): 73%
inhibition at 0.01 µM ([2]; HDFSAg, 10 nM, read-out: % Inhibition sIL-17A): 57%
inhibition at 0.01 µM ([2]; HDFSAg, 10 nM, read-out: % Inhibition sIL-17F): 86%
inhibition at 0.1 µM ([2]; HDFSAg, 100 nM, read-out: % Inhibition IL-8): 44%
inhibition at 0.1 µM ([2]; HDFSAg, 100 nM, read-out: % Inhibition MCP-1): 33%
inhibition at 0.1 µM ([2]; HDFSAg, 100 nM, read-out: % Inhibition MMP-1): 23%
inhibition at 0.1 µM ([2]; HDFSAg, 100 nM, read-out: % Inhibition sIL-2): 68%
inhibition at 0.1 µM ([2]; HDFSAg, 100 nM, read-out: % Inhibition sIL-6): 96%
inhibition at 0.1 µM ([2]; HDFSAg, 100 nM, read-out: % Inhibition sIL-10): 81%
inhibition at 0.1 µM ([2]; HDFSAg, 100 nM, read-out: % Inhibition sIL-17A): 74%
inhibition at 0.1 µM ([2]; HDFSAg, 100 nM, read-out: % Inhibition sIL-17F): 83%
inhibition at 0.1 µM ([2]; HDFSAg, 100 nM, read-out: % Inhibition sTNFa): 35%
bioavailability [3]: ~40%
bacterial mutagenicity (Ames) test [4]: negative
drop in titer versus untreated cells (SARS-CoV-2; Example 11, 1, 0.5, or 0.25 µM, 24 hours post infection): three log drop in titer
EC50 (SARS-CoV-2; [17]): 2.6 nM
EC90 (SARS-CoV-2; [17]): 53 nM
viral replication (SARS-CoV-2; cells preincubated for 18 hours): inhibited viral replication
effect of excess uridine on inhibition of SARS-CoV-2 replication (SARS-CoV-2; excess uridine (100 uM)): overcame inhibition of SARS-CoV-2 replication
reduction of viral replication (SARS-CoV-2; pre-incubation 2 hours with 250, 500, and 1000 nM, after 24 hours, all dose levels): about 3 orders of magnitude
reduction in SARS-CoV-2 titer (SARS-CoV-2 USA-WA1/2020; PTC299 250 nM): 96%
reduction in SARS-CoV-2 titer (SARS-CoV-2 USA-WA1/2020; PTC299 500 nM): 98%
in vivo rat micronucleus assay [5]: negative
concentration at 4 h [6]: 1900 ng/mL
EC50 [7]: 4 nM
EC50 (Poliovirus): 0.6 nM
EC50 [8]: 36 nM
